Reference: the NIST ThermoML archive (doi:10.1021/je060271a)
± gives the expanded uncertainty stated by the source.

Details: 343.15 K, Liquid, Vibrating tube method

Measured: mass density

CCCCCCCC(=O)OCC(COC(=O)CCCCCCC)(COC(=O)CCCCCCC)COC(=O)CCCCCCC [pentaerythritol tetraoctanoate]
934 ± 1.2 kg/m3: 10936 kPa | 10961 kPa | 11042 kPa | 11068 kPa | 11153 kPa
935.2 ± 1.2 kg/m3: 12649 kPa | 12797 kPa | 12831 kPa | 12909 kPa
935.1 ± 1.2 kg/m3: 12615 kPa | 12684 kPa | 12725 kPa | 12760 kPa
933.9 ± 1.2 kg/m3: 10803 kPa | 10827 kPa | 10881 kPa | 10906 kPa | 10987 kPa | 11012 kPa | 11126 kPa
932.9 ± 1.2 kg/m3: 9620.6 kPa
934.8 ± 1.2 kg/m3: 12163 kPa | 12227 kPa | 12296 kPa | 12362 kPa
934.9 ± 1.2 kg/m3: 12265 kPa | 12329 kPa | 12401 kPa
935 ± 1.2 kg/m3: 12434 kPa | 12468 kPa | 12507 kPa | 12541 kPa | 12575 kPa
933.8 ± 1.2 kg/m3: 10422 kPa | 10543 kPa | 10723 kPa | 10748 kPa | 10777 kPa | 10852 kPa
935.4 ± 1.2 kg/m3: 13096 kPa
932.8 ± 1.2 kg/m3: 9344.4 kPa | 9387.6 kPa | 9449 kPa
934.1 ± 1.2 kg/m3: 11099 kPa
935.6 ± 1.2 kg/m3: 13261 kPa | 13300 kPa | 13339 kPa | 13423 kPa | 13462 kPa | 13587 kPa
932.5 ± 1.2 kg/m3: 8784.7 kPa | 8991.7 kPa | 9071.9 kPa
933.7 ± 1.2 kg/m3: 10450 kPa | 10497 kPa | 10520 kPa | 10595 kPa | 10618 kPa | 10671 kPa | 10699 kPa
934.6 ± 1.2 kg/m3: 11900 kPa | 11966 kPa | 12027 kPa
934.4 ± 1.2 kg/m3: 11528 kPa | 11561 kPa | 11590 kPa | 11618 kPa | 11710 kPa | 11774 kPa | 11834 kPa
935.5 ± 1.2 kg/m3: 13024 kPa | 13140 kPa | 13177 kPa
935.8 ± 1.2 kg/m3: 13548 kPa | 13716 kPa
934.2 ± 1.2 kg/m3: 11180 kPa | 11206 kPa | 11238 kPa | 11264 kPa | 11350 kPa | 11647 kPa
933.1 ± 1.2 kg/m3: 9549.6 kPa | 9726.7 kPa | 9760 kPa | 9868.1 kPa
933.2 ± 1.2 kg/m3: 9653.7 kPa | 9793.4 kPa | 9902.1 kPa | 9943.1 kPa
936 ± 1.2 kg/m3: 13807 kPa | 13849 kPa | 13893 kPa | 13947 kPa
933.5 ± 1.2 kg/m3: 10256 kPa | 10327 kPa | 10349 kPa
935.3 ± 1.2 kg/m3: 12873 kPa | 12944 kPa | 12980 kPa | 13060 kPa
933 ± 1.2 kg/m3: 9480 kPa | 9517.6 kPa | 9582.5 kPa | 9687.4 kPa | 9827.7 kPa
933.3 ± 1.2 kg/m3: 10014 kPa | 10207 kPa
933.6 ± 1.2 kg/m3: 10305 kPa | 10376 kPa | 10474 kPa | 10572 kPa | 10647 kPa
934.3 ± 1.2 kg/m3: 11296 kPa | 11323 kPa | 11383 kPa | 11410 kPa | 11438 kPa | 11471 kPa | 11499 kPa
935.7 ± 1.2 kg/m3: 13222 kPa | 13384 kPa | 13508 kPa | 13635 kPa | 13675 kPa
932.6 ± 1.2 kg/m3: 9031.4 kPa | 9120.5 kPa | 9248.6 kPa
934.5 ± 1.2 kg/m3: 11739 kPa | 11804 kPa | 11869 kPa
934.7 ± 1.2 kg/m3: 11930 kPa | 11997 kPa | 12064 kPa | 12095 kPa | 12126 kPa | 12195 kPa
933.4 ± 1.2 kg/m3: 9978.4 kPa | 10058 kPa | 10096 kPa | 10138 kPa | 10176 kPa | 10234 kPa | 10278 kPa
932.7 ± 1.2 kg/m3: 9162.4 kPa | 9204.8 kPa | 9301 kPa
936.1 ± 1.2 kg/m3: 13993 kPa
932.4 ± 1.2 kg/m3: 8739.9 kPa
